{"source": "patent US20240245696A1", "about": "“INHIBITORS OF DNA PK AND USES THEREOF” (BioVentures, LLC, priority 2017, published 2024)", "key": {"Cabin1": {"tested_on": "Cabin1", "assay": "Western blot of Cabin1 expression in activated Jurkat cells", "format": "cell-based, human", "conditions": "Jurkat activated with PMA+PHA", "description": "Cell lysis and nuclear extract: Cells were washed with cold PBS twice and centrifuged at 5000 rpm for 5 minutes. For the nuclear extract, pellets were suspended with 800 μL of 10 mN HEPES lysis buffer (10 mM HEPES at pH 7.9, 10 mM KCl, 1 mM DTT, and 1× protease and phosphatase inhibitor) and incubated on ice for 15 minutes. 50 μL of NP-40 (10% in water) was added and the pellets were mixed for 10 seconds. Lysates were centrifuged for 5 minutes at 4° C. at 13,000 rpm. The supernatant solution which is containing the cytosolic fraction was discarded and the pellets were resuspended in 20 mM HEPES lysis buffer (20 mM HEPES at pH 7.9, 0.4 M NaCl, 1 mM DTT, and 1× protease, and phosphatase inhibitor) and incubated on ice for 15 minutes with intermittent mixing. Lysates were centrifuged for 10 minutes at 4° C. at 13,000 rpm. The supernatant containing nuclear extract was stored at -20° C. until they were used for the Western blot analysis. For total cell lysates, cell pellets were resuspended with 100 μL of RIPA buffer (150 mM NaCl, 1% Triton X-100, 0.1% SDS, and 50 mM Tris at pH 8.0) and incubated on ice for 10 minutes. The lysates were centrifuged for 10 minutes at 4° C. at 13,000 rpm and the supernatant solutions were stored at -20° C. until they were used for the Western blot analysis. Western blot analysis: Nuclear extract lysates were separated on 3-8% Tris-Acetate gels (Invitrogen). […]"}, "mTOR": {"tested_on": "mTOR", "assay": "mTOR (phospho-ser2448) ELISA and western blot in activated Jurkat cells", "format": "cell-based, human", "description": "Western blot analysis: Nuclear extract lysates were separated on 3-8% Tris-Acetate gels (Invitrogen). Total cell lysates were separated on 4-20% Tris-Glycine gels (Bio-Rad). Gels were transferred onto PVDF membrane (Millipore) for 2 hours in the cold room at 100V. Immunoblotting was performed using following antibodies: pDNA-PKcs at S2056 (ab18192, Abcam), DNAPK (ab53701, Abcam), pNFAT2 at S237 (ab183023, Abcam), CABIN1 (12660S, Cell signaling), GAPDH (MAB374, Millipore), and Lamin B1 (ab16048, Abcam). HRP-conjugated secondary antibody anti-Rabbit and anti-Mouse (7074S and 7076S, Cell Signaling) was used.\nDetection of calcineurin and mTOR activities: Calcineurin phosphatase activity was detected by Calcineurin Cellular Activity Assay Kit from Millipore (Billerica, MA) and mTOR signaling was detected by Calcium Detection Kit from Abcam (Cambridge, MA). The manufacturer's protocols were followed. Briefly, Jurkat cells (2 million cells/mL) were lysed using lysis buffer. For calcineurin activity, the cell lysates were desalted by gel filtration to remove free phosphates before the assay and were subjected to calcineurin activity assay. The absorbance of each sample was read at 620 nm using the plate reader. […] The absorbance of each sample was read at 450 nm using the plate reader."}, "PD-1": {"tested_on": "PD-1", "assay": "qPCR of PD-1 expression in stimulated Jurkat cells", "format": "cell-based, human", "conditions": "PHA+PMA stimulation", "description": "Evaluation of PD-1 and IL-2 expression: The effect of NU7441 on the expression of PD-1, a protein with immunosuppressant function, and IL-2 was examined in Jurkat cells following stimulation with PHA+PMA and treatment with the inhibitor NU7441. qPCR analysis was performed using primers specific for PD1 and IL-2 sequences."}, "PBMC": {"tested_on": "PBMC", "assay": "Cell viability assay (CELLTITER 96 AQUEOUS One) in PBMC", "format": "cell-based, human", "conditions": "various concentrations, 48 hours", "description": "Cell Culture: Human peripheral blood mononuclear cells (PBMC,) and Jurkat cells were purchased from ATCC (PCS-800-011, Manassas, VA). Cells were maintained at 37° C. in a humidified atmosphere composed of 5% CO2. Jurkat cells were cultured in RPMI 1640 medium which was supplemented with 10% FCS and human PBMC was cultured in RPMI 1640 medium which was supplemented with 10% FCS and pen/strep. Both Jurkat cells and PBMC were stimulated with PHA (50 ng/mL) and PMA (1 μg/mL) for 24 hours prior to harvesting for IL-2 detection or 6 hours prior for western blot analysis. The NU7441 DNA-PKcs inhibitor was added at varying concentrations at the time of stimulation. Cell viability assay: Cell viability assay was performed using Promega CELLTITER 96 AQUEOUS One Solution Cell Proliferation Assay (Madison, WI) and following the manufacturer's protocol. Briefly, 100 μL of PBMC or Jurkat cells were plated in a 96-well plate and treated with various concentration of NU7441 for 48 hours. CELLTITER solution (20 μL/100 μL of cell suspension) was added to the cells and the plate was incubated for 3 hours at 37° C. and the absorbance at 490 nm was recorded using SynergyHTX (BioTek, Winooski, VT) plate reader."}, "Th1 T cells": {"tested_on": "Th1 T cells", "assay": "qPCR on T cell markers, Th1 differentiation of naïve CD4+ T cells", "format": "cell-based", "conditions": "naïve CD4+ T cells from mouse spleens", "description": "qPCR on T cell markers: Naïve CD4+ T cells were isolated by standard methods from the spleens of Balbc mice. T cells were grown in culture and treated with cytokines specific for differentiate into Th1 and Th17 subtypes. Additionally, T cells were cultured with NU7441 and FK506. qPCR was performed looking at the following markers: Batf3, RORyt, IL17, IL22, TGFBeta, Lymphotoxin, T-Bet."}, "Ca^2+": {"tested_on": "Ca^2+", "assay": "Calcium ion measurement in Jurkat cell lysates", "format": "cell-based, human", "conditions": "Jurkat cell lysates following activation with PMA+PHA", "description": "Measurements of calcium ions: Intracellular concentration of calcium ions was measured by Calcium Detection Assay Kit from Abcam (Cambridge, MA). The manufacturer's protocols were followed. Briefly, Jurkat cells (2 million cells/mL) were lysed using cold PBS with 0.1% NP-40. The cell lysates were diluted 10 times before use. After following the assay protocol, the absorbance of each sample was read at 575 nm using the plate reader."}}, "note": "“Also recorded” adds a separate entry of the source.", "data": [{"molecule": "O=c1cc(N2CCOCC2)oc2c(-c3cccc4c3sc3ccccc34)cccc12", "note": "[NU7441]", "values": [{"measurement": "Cabin1 expression", "setting": "Cabin1", "value": "elevated Cabin1 expression"}, {"measurement": "Cabin1 expression", "setting": "Cabin1; listed as NU744", "value": "increase in Cabin1 expression"}, {"measurement": "mTOR activation (phosphorylated ser2448)", "setting": "mTOR", "value": "did not alter mTOR activation; also recorded: does not alter mTOR activation"}, {"measurement": "expression level of PD-1", "setting": "PD-1", "value": "did not alter"}, {"measurement": "cellular viability of PBMC", "setting": "PBMC", "value": "did not affect cellular viability; also recorded: does not reduce cell viability"}, {"measurement": "Th1 differentiation (markers T-Bet, Lymphotoxin)", "setting": "Th1 T cells", "value": "promoting the expression of Th1 T cells"}, {"measurement": "concentration of Ca^2+ ions", "setting": "Ca^2+", "value": "no change; also recorded: not affected"}]}]}
